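Compound exposure: 48 hours, 5 concentrations, 96-well plates. GI50 marks 50% less growth. TGI is the concentration that stops growth completely.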
Tests used:
Test in all cases: NCI-60 cell line screen, 48 h
[1] = system: RPMI-8226 leukemia
[2] = system: MALME-3M melanoma
[3] = system: T-47D breast
[4] = system: MOLT-4 leukemia
[5] = system: HOP-92 NSCLC
[6] = system: SF-268 CNS
[7] = system: SK-MEL-5 melanoma
[8] = system: LOX IMVI melanoma
[9] = system: EKVX NSCLC
[10] = system: HCC-2998 colon
[11] = system: SR leukemia
[12] = system: BT-549 breast
[13] = system: MCF7 breast
[14] = system: HOP-62 NSCLC
[15] = system: IGROV1 ovarian
[16] = system: HS 578T breast
[17] = system: MDA-MB-435
[18] = system: OVCAR-5 ovarian
[19] = system: SNB-75 CNS
[20] = system: ACHN renal
[21] = system: UACC-257 melanoma
[22] = system: MDA-MB-231 breast
[23] = system: TK-10 renal
[24] = system: NCI-H460 lung
[25] = system: NCI/ADR-RES ovarian
[26] = system: SK-MEL-2 melanoma
[27] = system: CAKI-1 renal
[28] = system: UO-31 renal
[29] = system: HT29 colon
[30] = system: A549 NSCLC
[31] = system: DU-145 prostate
[32] = system: SF-295 CNS
[33] = system: A498 renal
[34] = system: U251 CNS
[35] = system: HCT-15 colon
[36] = system: COLO 205 colon
[37] = system: UACC-62 melanoma
[38] = system: HCT-116 colon
[39] = system: PC-3 prostate
[40] = system: KM12 colon
[41] = system: NCI-H522 lung
[42] = system: NCI-H23 lung
[43] = system: 786-0 renal
[44] = system: SK-OV-3 ovarian
[45] = system: CCRF-CEM leukemia
[46] = system: NCI-H226 lung
[47] = system: SK-MEL-28 melanoma
[48] = system: OVCAR-3 ovarian
[49] = system: SW-620 colon
[50] = system: OVCAR-8 ovarian
[51] = system: HL-60(TB) leukemia
[52] = system: SF-539 CNS
[53] = system: K-562 leukemia
[54] = system: SN12C renal
[55] = system: SNB-19 CNS
[56] = system: M14 melanoma
[57] = system: RXF 393 renal

`Clc1cc2c(c(CSc3nc4ccccc4n4cccc34)c1)OCOC2` showed a GI50 [1] greater than 100 µM, a TGI [1] greater than 100 µM and a GI50 [2] of 29.6 µM. For the same molecule, the TGI [2] was greater than 100 µM, the GI50 [3] was 0.596 µM and the TGI [3] was 9.33 µM. It also gave a GI50 [4] greater than 100 µM, a TGI [4] greater than 100 µM and a GI50 [5] of 5.36 µM. It also gave a TGI [5] of 35.5 µM, a GI50 [6] of 31.3 µM and a TGI [6] greater than 100 µM. The GI50 [7] was greater than 100 µM, the TGI [7] was greater than 100 µM and the GI50 [8] was greater than 100 µM. The TGI [8] was greater than 100 µM, the GI50 [9] was 29.6 µM and the TGI [9] was greater than 100 µM. It also gave a GI50 [10] greater than 100 µM, a TGI [10] greater than 100 µM and a GI50 [11] greater than 100 µM. For the same molecule, the TGI [11] was greater than 100 µM, the GI50 [12] was 78.1 µM and the TGI [12] was greater than 100 µM. The GI50 [13] was 0.501 µM, the TGI [13] was greater than 100 µM and the GI50 [14] was 10.3 µM. The TGI [14] was 31.8 µM, the GI50 [15] was 4.26 µM and the TGI [15] was greater than 100 µM. For the same molecule, the GI50 [16] was 5.61 µM, the TGI [16] was 45 µM and the GI50 [17] was greater than 100 µM. It also gave a TGI [17] greater than 100 µM, a GI50 [18] greater than 100 µM and a TGI [18] greater than 100 µM. The GI50 [19] was 6.48 µM, the TGI [19] was 26.8 µM and the GI50 [20] was 67.3 µM. It also gave a TGI [20] greater than 100 µM, a GI50 [21] greater than 100 µM and a TGI [21] greater than 100 µM. The GI50 [22] was 12.7 µM, the TGI [22] was greater than 100 µM and the GI50 [23] was 3.49 µM. The TGI [23] was 60.3 µM, the GI50 [24] was greater than 100 µM and the TGI [24] was greater than 100 µM. The GI50 [25] was 61 µM, the TGI [25] was greater than 100 µM and the GI50 [26] was 13.6 µM. For the same molecule, the TGI [26] was 44.9 µM, the GI50 [27] was greater than 100 µM and the TGI [27] was greater than 100 µM. For the same molecule, the GI50 [28] was greater than 100 µM, the TGI [28] was greater than 100 µM and the GI50 [29] was greater than 100 µM. For the same molecule, the TGI [29] was greater than 100 µM, the GI50 [30] was greater than 100 µM and the TGI [30] was greater than 100 µM. The GI50 [31] was greater than 100 µM, the TGI [31] was greater than 100 µM and the GI50 [32] was 11.7 µM. For the same molecule, the TGI [32] was 39.9 µM, the GI50 [33] was 22.6 µM and the TGI [33] was greater than 100 µM. For the same molecule, the GI50 [34] was 17.1 µM, the TGI [34] was greater than 100 µM and the GI50 [35] was 2.7 µM. It also gave a TGI [35] greater than 100 µM, a GI50 [36] greater than 100 µM and a TGI [36] greater than 100 µM. The GI50 [37] was 76.5 µM, the TGI [37] was greater than 100 µM and the GI50 [38] was greater than 100 µM. For the same molecule, the TGI [38] was greater than 100 µM, the GI50 [39] was greater than 100 µM and the TGI [39] was greater than 100 µM. For the same molecule, the GI50 [40] was greater than 100 µM, the TGI [40] was greater than 100 µM and the GI50 [41] was 23.4 µM. For the same molecule, the TGI [41] was greater than 100 µM, the GI50 [42] was 26.3 µM and the TGI [42] was greater than 100 µM. The GI50 [43] was 51.6 µM, the TGI [43] was greater than 100 µM and the GI50 [44] was 13.7 µM. For the same molecule, the TGI [44] was 45 µM, the GI50 [45] was greater than 100 µM and the TGI [45] was greater than 100 µM. It also gave a GI50 [46] of 14.3 µM, a TGI [46] greater than 100 µM and a GI50 [47] greater than 100 µM. For the same molecule, the TGI [47] was greater than 100 µM, the GI50 [48] was 7.5 µM and the TGI [48] was greater than 100 µM. The GI50 [49] was greater than 100 µM, the TGI [49] was greater than 100 µM and the GI50 [50] was 20.6 µM. For the same molecule, the TGI [50] was greater than 100 µM, the GI50 [51] was greater than 100 µM and the TGI [51] was greater than 100 µM. It also gave a GI50 [52] of 22.9 µM, a TGI [52] greater than 100 µM and a GI50 [53] greater than 100 µM. For the same molecule, the TGI [53] was greater than 100 µM, the GI50 [54] was greater than 100 µM and the TGI [54] was greater than 100 µM. It also gave a GI50 [55] of 41 µM, a TGI [55] greater than 100 µM and a GI50 [56] greater than 100 µM. The TGI [56] was greater than 100 µM, the GI50 [57] was 15.2 µM and the TGI [57] was 61.9 µM.

Reference: PubChem BioAssay (NCI)
